# According to patent US10100335B2, “Microbial production of branched medium chain alcohols, such as 4-methylpentanol” (Massachusetts Institute of Technology, priority 2013, dated 2018):
# What was measured:
# [1] = target: T1, CarNi (Nocardia iowensis carboxylic acid reductase) (Nocardia iowensis, UniProt Q6RKB1); assay type: biochemical; details: for observed CarNi activity relative to activity on 4-methyl-valerate: in vitro, his-purified CarNi, 50 mM acid substrate; for CarNi activity on aliphatic acid substrate: 13 straight and branched acids from C2-C8
# T1 construct: made in house; host or cells: E. coli BL21 Star (DE3) harboring pET/His-Car-RBS2-Sfp
# Method: Strain M4 expressing car-sfp-ADH6 was fed five different acids at 10 mM initial concentration. Selectivity was determined by measuring normalized titers 5 hours post induction of gene expression. […] Initial rates were measured by monitoring NADPH consumption by measuring absorption at 340 nm.
# Assays were devised to confirm activity on desired substrates in vitro and in vivo. In the first, N-terminal his-tagged CarNi was purified and assayed by UV absorption of NADPH with 13 straight and branched acids from C2-C8. […] A complementary in vivo assay was designed to examine the effectiveness of the Module 4 pairing. Butyrate, valerate. 3-methyl-valerate, 4-methyl-valerate, and hexanoate were fed to E. coli cultures expressing CarNi/ADH6Sc and conversion was monitored by sampling the culture media and liquid chromatography (LC).
# Relative Activity Assay for Purified his-Car: An overnight culture of BL21 Star (DE3) (Invitrogen) harboring pET/His-Car-RBS2-Sfp was used as 10% (v/v) inoculum in 2 L of LB Broth. The culture was incubated at 30° C. and 250 rpm, and expression was induced using a final concentration of 1 mM IPTG at OD 0.6. Cells were harvested after 20 hours using centrifugation and resuspended in a buffer containing 50 mM Tris-HCl pH 8.0, 300 mM NaCl, and 10% glycerol. Cells were subsequently lysed using sonication. The supernatant was collected and applied to a column containing Ni-NTA resin (Qiagen). Affinity chromatography was performed using step-wise increasing concentrations of imidazole. Fractions containing purified His6-Car were dialyzed overnight at 4° C. into 50 mM Tris-HCl pH 7.5, 50 mM NaCl, 1 mM DTT, and 10% glycerol. Dialyzed enzyme was then flash frozen using liquid nitrogen and stored at −80° C. The activity of His-Car on various substrates was determined by changes in absorbance at 340 nm for up to 5 minutes in 96-well microplates using a plate reader (Tecan Infinite F200 Pro). Reactions were prepared as follows: 100 mM Tris-HCl pH 7.5, 10 mM MgCl2, 0.6 mM NADPH, 1 mM ATP, 224 nM His-Car, and 50 mM pH neutralized acid substrate. Changes in absorbance at 340 nm were detected using a filter. All substrates were assayed in triplicate. For KM and Vmax determinations, substrates were assayed at 5 different concentrations.
# MG1655(DE3) endA recA = assay: Toxicity of exogenously added alcohols on exponential growth rate; assay type: cell-based, E. coli; details: for reduction in growth rate: 10 mM alcohol in LB medium with 1.2% glucose
# Method: The exponential growth rate was unchanged by 4-methyl-1-pentanol concentrations exceeding those observed in final titers (193±23 mg/L) for the high producing Strain M1Fj(IA)2I34. The highest 4-methyl-1-pentanol concentration (10 mM, 1022 mg/L) did lead to a reduction in growth rate of 40%. […] If higher titers of 4-methyl-1-pentanol are achieved, in situ gas stripping or simple phase separation could potentially be used to extract 4-methyl-1-pentanol from the culture medium (Lee 1994).
# Duplicate 3 ml cultures in LB+1.2% glucose+alcohol were inoculated to an initial OD600 of 0.1. Cultures were contained in the same 50 ml screw-cap tubes used in production experiments. […] Growth was monitored by optical density and the growth rate was calculated from a linear regression of the natural log of the OD600 values for the 1.5, 2, and 2.5 hour post-inoculation time points.
# [2] = cited from earlier work
# T1 sequence (Q6RKB1 whole entry): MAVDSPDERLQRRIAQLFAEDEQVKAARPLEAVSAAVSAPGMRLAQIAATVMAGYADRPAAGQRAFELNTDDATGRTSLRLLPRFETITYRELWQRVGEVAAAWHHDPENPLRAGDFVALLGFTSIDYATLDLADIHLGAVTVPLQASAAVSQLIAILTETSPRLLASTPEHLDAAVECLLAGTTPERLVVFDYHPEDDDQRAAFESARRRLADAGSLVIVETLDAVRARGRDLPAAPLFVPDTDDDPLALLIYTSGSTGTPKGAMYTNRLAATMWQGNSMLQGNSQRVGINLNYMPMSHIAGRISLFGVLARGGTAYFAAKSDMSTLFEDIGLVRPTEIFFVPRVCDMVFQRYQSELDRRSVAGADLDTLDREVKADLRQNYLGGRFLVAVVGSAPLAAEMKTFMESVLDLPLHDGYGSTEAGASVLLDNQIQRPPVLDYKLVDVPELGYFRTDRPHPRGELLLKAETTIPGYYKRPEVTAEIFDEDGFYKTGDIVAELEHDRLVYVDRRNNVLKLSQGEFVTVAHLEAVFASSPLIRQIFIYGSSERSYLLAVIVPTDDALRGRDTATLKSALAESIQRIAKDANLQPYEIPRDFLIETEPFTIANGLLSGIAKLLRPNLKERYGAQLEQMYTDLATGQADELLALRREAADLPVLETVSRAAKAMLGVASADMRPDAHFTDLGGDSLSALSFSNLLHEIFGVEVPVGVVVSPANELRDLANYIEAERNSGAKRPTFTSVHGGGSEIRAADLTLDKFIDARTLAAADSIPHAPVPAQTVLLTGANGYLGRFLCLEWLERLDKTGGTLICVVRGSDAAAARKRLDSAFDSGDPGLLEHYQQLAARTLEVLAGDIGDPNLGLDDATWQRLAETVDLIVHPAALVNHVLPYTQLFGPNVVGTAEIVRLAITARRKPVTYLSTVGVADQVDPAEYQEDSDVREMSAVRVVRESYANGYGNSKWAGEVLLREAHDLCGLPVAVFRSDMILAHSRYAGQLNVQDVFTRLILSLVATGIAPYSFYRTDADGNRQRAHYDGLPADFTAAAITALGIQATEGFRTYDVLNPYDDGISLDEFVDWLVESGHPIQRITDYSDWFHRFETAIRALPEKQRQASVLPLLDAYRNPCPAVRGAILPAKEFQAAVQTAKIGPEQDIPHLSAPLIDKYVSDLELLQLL
compound,measurement,setting,value
CCCC(=O)O [butyrate],observed CarNi activity relative to activity on 4-methyl-valerate,[1],56%
CC(C)C(=O)O [isobutyrate],CarNi activity on aliphatic acid substrate,[1],reduced activity
same,observed CarNi activity relative to activity on 4-methyl-valerate,[1],25%
same,Km,"[1]; purified His-CarNi, initial rates by NADPH consumption at 340 nm",78 ± 9 mM
CC(=O)O [acetate],CarNi activity on aliphatic acid substrate,[1],reduced activity
CC(C)CO [isobutanol],reduction in growth rate,MG1655(DE3) endA recA,10%
same,effect on exponential growth rate,MG1655(DE3) endA recA; concentrations up to 5 mM,did not inhibit
CCC(C)CCC(=O)O (stereo not drawn) [4-methyl-hexanoate],CarNi activity on aliphatic acid substrate,[1],highest activity
CC(C)CCCO [4-methyl-1-pentanol],reduction in growth rate,MG1655(DE3) endA recA,40%
same,effect on exponential growth rate,MG1655(DE3) endA recA; concentrations exceeding those observed in final titers (193±23 mg/L),unchanged
same,effect on exponential growth rate,MG1655(DE3) endA recA; concentrations up to 5 mM,did not inhibit
same,solubility in water,[2],7.4 mg/mL
